Molecular target: T1, hASBT (Homo sapiens, UniProt Q12908)
T1 sequence (Q12908 1-348): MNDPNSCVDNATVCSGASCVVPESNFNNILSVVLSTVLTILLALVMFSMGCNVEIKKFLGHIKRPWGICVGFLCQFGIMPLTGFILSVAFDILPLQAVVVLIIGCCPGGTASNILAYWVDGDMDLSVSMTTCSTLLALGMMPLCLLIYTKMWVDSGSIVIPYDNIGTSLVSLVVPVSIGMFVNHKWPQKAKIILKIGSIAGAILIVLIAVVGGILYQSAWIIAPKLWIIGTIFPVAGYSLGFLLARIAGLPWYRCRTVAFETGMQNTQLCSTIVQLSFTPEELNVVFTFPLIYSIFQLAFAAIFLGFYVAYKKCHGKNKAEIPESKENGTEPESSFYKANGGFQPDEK
Experiment: Conjugate uptake into hASBT-MDCK cells in the presence of sodium
Format: cell-based

Structure (SMILES): C[C@H](CCC(=O)NCCS(=O)(=O)O)[C@H]1CC[C@H]2[C@@H]3[C@H](O)C[C@@H]4C[C@H](O)CC[C@]4(C)[C@H]3C[C@H](O)[C@]12C [taurocholate, Taurocholate]
- Vmax: 0.699 pmol/cm^2/s

Reference: publication PMC2997912 (Molecular pharmaceutics, 2010)
